Test results reported in PMC9966268, “Genotoxicity of Novel Pyrazolo[4,3-e]tetrazolo[1,5-b][1,2,4]triazine Sulfonamides in Normal and Cancer Cells In Vitro” (International Journal of Molecular Sciences, 2023).

Key:
WI-38 [1] = system: WI-38; set-up: method as in PMID 35682571; conditions: WI-38 (head prints WI-28), 72 h incubation, MTT assay, mean; read-out: IC50 Value ± SD; cited from earlier work
PC-3 [2] = experiment: Alkaline comet assay; assay type: cell-based, human; conditions: PC-3, alkaline, 24 h
Experimental: (§1) The alkaline version of the comet assay was performed according to Singh et al. (1988), with modifications. BxPC-3 and PC-3 cancer cells and normal human fibroblasts (WI-38) were seeded at a density of 1.2 × 10^5/mL onto 12-well plates. […] The experimental design included negative controls (cells treated with DMSO at 0.4% for 24 h at 37 °C). Cells were left for incubation for another 24 h (37 °C; 5% CO2). After exposure, they were transferred to Eppendorf tubes and centrifuged at 1400 rpm for 10 min at 4 °C. Afterward, the supernatant was removed, and the precipitate was diluted in PBS. The next steps were performed as previously described by Kontek and Nowicka.
(§2) After electrophoresis (conditions: 12 V, 300 mA, 25 min), slides were stained with 1 µg/mL of the intercalating agent 4′,6-diamidino-2-phenylindole (DAPI) and coverslipped. DNA damage was assessed with a fluorescence microscope at 360 nm using CellSens (Olympus) software. A total number of approximately 50 cells per slide was chosen for further analysis.
(§3) […] This parameter provides a very clear picture of what the actual appearance of the comets was like. […] The data were presented with an interquartile range and minimal and maximal values using Graphpad Prism 7. Statistical analysis of comet assay results was performed using Statistica software. The Kruskal–Wallis test was used to show a statistically significant difference between groups. Multiple comparisons using mean ranks for all groups module of Statistica software were used. A p-value less than 0.05 was considered statistically significant. In all groups, N > 200.

WI-38 [3] = experiment: Alkaline comet assay; assay type: cell-based, human; conditions: WI-38, alkaline, 24 h
Experimental: as §1, §2, §3

BxPC-3 [4] = experiment: Alkaline comet assay; assay type: cell-based, human; conditions: BxPC-3, alkaline, 24 h
Experimental: as §1, §2, §3

BxPC-3 [5] = experiment: Neutral comet assay; assay type: cell-based, human; conditions: 24 h
Experimental: (§4) The majority of the neutral comet assay steps were performed analogously to the alkaline version except for the electrophoresis step. In contrast to the alkaline comet assay, electrophoresis was performed in a buffer comprising 100 mM TRIS and 300 mM sodium acetate with the pH of the solution adjusted to 9.0 by glacial acetic acid, as described previously by Bukowski et al.. Electrophoresis was run at 12 V, 50 mA for 60 min. Cells were washed with distilled water twice, stained with DAPI, and analyzed as described for the alkaline comet assay.
CASP: Comet Assay Software Project Lab (http://casplab.com (accessed on 1 January 2023)) was used to establish the median value of DNA (%) in comet tails. This parameter provides a very clear picture of what the actual appearance of the comets was like. […] The data were presented with an interquartile range and minimal and maximal values using Graphpad Prism 7. Statistical analysis of comet assay results was performed using Statistica software. The Kruskal–Wallis test was used to show a statistically significant difference between groups. Multiple comparisons using mean ranks for all groups module of Statistica software were used. A p-value less than 0.05 was considered statistically significant. In all groups, N > 200.

PC-3 [6] = experiment: γH2AX staining; assay type: cell-based, human; conditions: PC-3, IC50 concentration, 24 h, foci per cell
Experimental: PC-3 cells were seeded at a density of 3 × 10^4/mL onto round coverslips placed on the bottom of 12-well plates. […] After 24 h, cells were washed once with cold PBS and placed in 4% paraformaldehyde (PHA) in PBS for 10 min. at room temperature. After that, PHA was removed, and cells were permeabilized using 0.1% Triton X-100 for 10 min at 20 °C, followed by incubation in a blocking solution (1 mL/well) containing 2.5% BSA, 1.5% goat serum, and 0.1% Triton X-100 in PBS for 10 min at room temperature. The blocking solution was removed, and coverslips containing cells were incubated with anti-γ-H2AX primary antibodies in blocking solution (anti-gamma-H2AX (phosphor-Ser139) (Abcam, Cambridge, UK; 1:100)) for 1 h at room temperature. Cells were transferred into 12-well plates, washed twice in PBS (5 min each), transferred to plates, and incubated with Goat anti-Mouse IgG Cross-adsorbed antibody, Alexa Fluor 488 (Invitrogen; 1:500 in PBS) for 1 h at room temperature. Cells were washed twice in PBS, followed by incubation with DAPI solution (1 µg/mL) for 10 min at room temperature and two washes in PBS and distilled water. Coverslips were removed using tweezers and placed on microscope slides with a drop of Fluoromount-G mounting medium. The slides were placed flat at room temperature for 24 h and then stored at 4 °C. The slides were analyzed with a fluorescence microscope using CellSens (Olympus) software. A total number of approximately 100 cells per slide was chosen for further analysis. The experiment was performed in duplicate. In BxPC-3 cells, inefficient or non-specific staining was observed despite attempts to optimize the assay. Therefore, we discontinued further work on these cells with the assay.
Images for green γ-H2AX (Alexa Fluor 488) and blue nuclear signals (DAPI) were taken using an Olympus camera. ImageJ software “find maxima” and “count” functions were used to determine the number of γ-H2AX foci in each cell. The “preview point selection” option and “prominence” were chosen based on the accuracy of coverage of γ-H2AX foci. Data were analyzed using GraphPad Prism 7.0 software system (GraphPad Prism Software Inc., USA) and Statistica software. The Kruskal–Wallis test was used to show a statistically significant difference between groups. Multiple comparisons using mean ranks for all groups module of Statistica software were used. A p-value less than 0.05 was considered statistically significant (p < 0.05). In all groups, N > 200.

BxPC-3 [7] = system: BxPC-3; set-up: method as in PMID 35682571; conditions: BxPC-3, 72 h incubation, MTT assay, mean; read-out: IC50 Value ± SD; cited from earlier work
PC-3 [8] = experiment: Neutral comet assay; assay type: cell-based, human; conditions: 24 h
Experimental: as §4, §3

PC-3 [9] = system: PC-3; set-up: method as in PMID 35682571; conditions: PC-3, 72 h incubation, MTT assay, mean; read-out: IC50 Value ± SD; cited from earlier work
Alamar blue assay = assay type: cell-based; conditions: human
Experimental: Alamar blue works as a non-toxic and membrane-permeable redox indicator that is often used to assess the metabolic activity of cells. Over the past 50 years, the alamar blue reagent has been used to measure cell viability and cytotoxicity in a variety of cell types. In this study, alamar blue (BioRAD) was used to assess cell viability before the performance of the neutral comet assay. Nunc microtiter, flat-bottomed 96-well plates were seeded at a density of approximately 1 × 10^4 cells per 100 µL medium per well. Following the given incubation period in controlled conditions (37 °C; 5% CO2), cells were exposed to 11 different concentrations of tested compounds in DMSO (range 0.05–3 µM) in a volume of 100 µL medium per well. The final solvent concentration was <0.5% v/v. The experimental design included negative controls and blanks (wells without cells).
Following a 24 h incubation period, 20 µL of alamar blue was added to each well of the experimental plate. Cells were incubated in a humidified atmosphere for 4 h (37 °C; 5% CO2). The absorbance reading was performed at 570 and 600 nm using a spectrophotometer (microplate reader Power Wave XS BioTek Instruments, Inc., USA). The experiments were performed in triplicate.
The percentage difference between treated and control cells was calculated using the formula provided by the producer (BioRad). (1) Percentage difference between treated and control cells=O2×A1 −O1×A2 /O2×P1−O1×P2×100

[10] = system: BxPC-3 and PC-3 cancer cell lines; set-up: method as in PMID 35682571; conditions: BxPC-3 and PC-3, 72 h MTT assay; read-out: IC50 (range over cancer cell lines); cited from earlier work
[11] = BxPC-3, neutral, positive control 20 µM
[12] = PC-3, neutral, positive control 20 µM

In the case of Cc1nn(-c2ccc(S(=O)(=O)N3CCOCC3)cc2)c2nn3nnnc3nc12 [MM136], the IC50 (WI-38 [1]) is listed as 480 ± 90 nM, the “mean tail DNA %” value (PC-3 [2]; IC50 concentration) is listed as 12.08% and the “median tail DNA %” value (PC-3 [2]; IC50 concentration) is listed as 1.63%. The “mean tail DNA %” value (WI-38 [3]; IC50 concentration) was 0.72%, the “median tail DNA %” value (WI-38 [3]; IC50 concentration) was 0.01% and the “mean tail DNA %” value (BxPC-3 [4]; IC50 concentration) was 14.36%. For the same compound, the “median tail DNA %” value (BxPC-3 [4]; IC50 concentration) was 8.28%, the “mean tail DNA % (double-strand breaks)” value (BxPC-3 [5]; human) was 5.08% and the “median tail DNA % (double-strand breaks)” value (BxPC-3 [5]; human) was 4.10%. For the same compound, the “mean number of γH2AX foci” value (PC-3 [6]) was 14.71, the “median number of γH2AX foci” value (PC-3 [6]) was 11 and the IC50 (BxPC-3 [7]) was 250 ± 80 nM. The “mean tail DNA % (double-strand breaks)” value (PC-3 [8]; human) was 8%, the “median tail DNA % (double-strand breaks)” value (PC-3 [8]; human) was 4.6% and the IC50 (PC-3 [9]) was 130 ± 10 nM.
In the case of Cc1nn(-c2ccc(S(=O)(=O)N3CCN(C)CC3)cc2)c2nn3nnnc3nc12 [MM137], the IC50 (WI-38 [1]) is given as 270 ± 40 nM, the “mean tail DNA %” value (PC-3 [2]; IC50 concentration) is given as 11.05% and the “median tail DNA %” value (PC-3 [2]; IC50 concentration) is given as 2.32%. The “mean tail DNA %” value (WI-38 [3]; IC50 concentration) was 1.26%, the “median tail DNA %” value (WI-38 [3]; IC50 concentration) was 0.09% and the “mean tail DNA %” value (BxPC-3 [4]; IC50 concentration) was 12.07%. The “median tail DNA %” value (BxPC-3 [4]; IC50 concentration) was 3.28%, the “mean number of γH2AX foci” value (PC-3 [6]) was 17.52 and the “median number of γH2AX foci” value (PC-3 [6]) was 15. For the same compound, the IC50 (BxPC-3 [7]) was 160 ± 40 nM, the “mean tail DNA % (double-strand breaks)” value (PC-3 [8]; human) was 4.45% and the “median tail DNA % (double-strand breaks)” value (PC-3 [8]; human) was 2.82%. The IC50 (PC-3 [9]) was 110 ± 7 nM.
For Cc1nn(-c2ccc(S(=O)(=O)N3CCCCC3)cc2)c2nn3nnnc3nc12 [MM139], the IC50 (WI-38 [1]) is listed as 540 nM, the “mean tail DNA %” value (PC-3 [2]; IC50 concentration) is listed as 14.22% and the “median tail DNA %” value (PC-3 [2]; IC50 concentration) is listed as 3.35%. The “mean tail DNA %” value (WI-38 [3]; IC50 concentration) was 2.97%, the “median tail DNA %” value (WI-38 [3]; IC50 concentration) was 0.085% and the “mean tail DNA %” value (BxPC-3 [4]; IC50 concentration) was 10.85%. For the same compound, the “median tail DNA %” value (BxPC-3 [4]; IC50 concentration) was 4.74%, the “mean tail DNA % (double-strand breaks)” value (BxPC-3 [5]; human) was 4.86% and the “median tail DNA % (double-strand breaks)” value (BxPC-3 [5]; human) was 3.72%. For the same compound, the “mean number of γH2AX foci” value (PC-3 [6]) was 15.37, the “median number of γH2AX foci” value (PC-3 [6]) was 12 and the viability at 24 h, 3 µM (Alamar blue assay; BxPC-3 cells, BxPC-3, 3 µM) was 75.3 ± 0.99%. The viability at 24 h, 3 µM (Alamar blue assay; PC-3 cells, PC-3, 3 µM) was 88.4 ± 1.72%, the IC50 (BxPC-3 [7]) was 330 ± 140 nM and the “mean tail DNA % (double-strand breaks)” value (PC-3 [8]; human) was 6.07%. The “median tail DNA % (double-strand breaks)” value (PC-3 [8]; human) was 5%, the IC50 [10] was 170 to 330 nM and the IC50 (PC-3 [9]) was 170 ± 3 nM.
With bleomycin [reference compound] the “mean tail DNA %” value (PC-3 [2]; positive control 20 µM) was 22.07%, the “median tail DNA %” value (PC-3 [2]; positive control 20 µM) was 19.31% and the “mean tail DNA %” value (WI-38 [3]; positive control 20 µM) was 32.6%. For the same compound, the “median tail DNA %” value (WI-38 [3]; positive control 20 µM) was 29.13%, the “mean tail DNA %” value (BxPC-3 [4]; positive control 20 µM) was 48.3% and the “median tail DNA %” value (BxPC-3 [4]; positive control 20 µM) was 50.8%. The “mean tail DNA % (double-strand breaks)” value (BxPC-3 [5]; [11]) was 11.15%, the “median tail DNA % (double-strand breaks)” value (BxPC-3 [5]; [11]) was 9.7% and the “mean tail DNA % (double-strand breaks)” value (PC-3 [8]; [12]) was 12.9%. The “median tail DNA % (double-strand breaks)” value (PC-3 [8]; [12]) was 10.4%.
